{"source": "ChEMBL document CHEMBL5385850", "about": "“Identification of novel aza-analogs of TN-16 as disrupters of microtubule dynamics through a multicomponent reaction” (Eur J Med Chem, 2023)", "key": {"SH-SY5Y [1]": {"system": "SH-SY5Y", "assay": "Cytotoxicity against human SH-SY5Y cells at 1 uM incubated for 72 hrs by MTT assay relative to control", "type": "functional"}, "Tubulin (Homo sapiens) [2]": {"molecular_target": "T1, Tubulin (Homo sapiens) (UniProt P68371+Q9H4B7+P0DPH7+P68366+Q13509+Q71U36+P04350+Q3ZCM7+P07437+P68363+Q9BQE3+Q6PEY2+Q13885+Q9BVA1+Q9BUF5)", "assay": "Inhibition of tubulin polymerization (unknown origin) at 1 to 30 uM measured every 60 secs for 1 hr by fluorescence based analysis", "type": "protein-complex assay", "conditions": "dose 1-30 µM, time 60.0 sec"}, "Tubulin (Homo sapiens) [3]": {"molecular_target": "T1, Tubulin (Homo sapiens)", "assay": "Inhibition of tubulin polymerization in human SH-SY5Y cells assessed as decrease in depolymerized tubulin to polymerized tubulin ratio at 1 uM measured after 16 hrs by Western blot analysis", "type": "cell-based"}, "SH-SY5Y [4]": {"system": "SH-SY5Y", "assay": "Upregulation of tubulin acetylation in human SH-SY5Y cells at 300 nM by immunofluorescence assay", "type": "functional, cell-based"}, "SH-SY5Y [5]": {"system": "SH-SY5Y", "assay": "Cytotoxicity against human SH-SY5Y cells incubated for 48 hrs by MTT assay", "type": "functional, cell-based"}, "Tubulin (Homo sapiens) [6]": {"molecular_target": "T1, Tubulin (Homo sapiens)", "assay": "Inhibition of tubulin polymerization in human SH-SY5Y cells assessed as disappearance of tubulin network structure at 3 times EC50 measured after 16 hrs by immunofluorescence assay", "type": "cell-based"}, "SH-SY5Y [7]": {"system": "SH-SY5Y", "assay": "Upregulation of tubulin acetylation in human SH-SY5Y cells at 100 to 1000 nM measured after 16 hrs by Western blot analysis", "type": "functional, cell-based", "conditions": "dose 100-1000 nM"}, "SH-SY5Y [8]": {"system": "SH-SY5Y", "assay": "Induction of cell cycle arrest in human SH-SY5Y cells assessed as accumulation of cells at G2/M phase at 1 uM measured after 16 hrs by PI staining based flow cytometry analysis", "type": "functional"}, "MDA-MB-231": {"system": "MDA-MB-231", "assay": "Cytotoxicity against human MDA-MB-231 cells incubated for 48 hrs by MTT assay", "type": "functional, cell-based"}, "SH-SY5Y [9]": {"system": "SH-SY5Y", "assay": "Upregulation of tubulin acetylation in human SH-SY5Y cells at 1 uM measured after 16 hrs by Western blot analysis", "type": "functional, cell-based"}, "SH-SY5Y [10]": {"system": "SH-SY5Y", "assay": "Upregulation of tubulin acetylation in human SH-SY5Y cells at 70 to 350 nM measured after 16 hrs by Western blot analysis", "type": "functional, cell-based", "conditions": "dose 70-350 nM"}, "SH-SY5Y [11]": {"system": "SH-SY5Y", "assay": "Upregulation of tubulin acetylation in human SH-SY5Y cells at 200 nM by immunofluorescence assay", "type": "functional, cell-based"}, "HeLa": {"system": "HeLa", "assay": "Cytotoxicity against human HeLa cells incubated for 48 hrs by MTT assay", "type": "functional, cell-based"}, "Tubulin (Homo sapiens) [12]": {"molecular_target": "T1, Tubulin (Homo sapiens)", "assay": "Inhibition of tubulin polymerization (unknown origin) measured every 60 secs for 1 hr by fluorescence based analysis", "type": "protein-complex assay", "conditions": "dose 1-10 µM"}, "MCF7": {"system": "MCF7", "assay": "Cytotoxicity against human MCF7 cells incubated for 48 hrs by MTT assay", "type": "functional, cell-based"}, "Tubulin (Homo sapiens) [13]": {"molecular_target": "T1, Tubulin (Homo sapiens)", "assay": "Inhibition of tubulin polymerization in human SH-SY5Y cells assessed as decrease in depolymerized tubulin to polymerized tubulin ratio at 100 nM measured after 16 hrs by Western blot analysis", "type": "cell-based"}}, "note": "Active and inactive are the calls of the source. The rule behind the calls is not given here."}
{"smiles": "C/C(Cc1ccccc1)=C1/C(=O)N[C@@H](Cc2ccccc2)C1=O", "values": [{"measurement": "Activity", "setting": "SH-SY5Y [1]", "value": 100.7, "unit": "%"}]}
{"smiles": "C#CCOc1cccc(N/C(C)=C2\\C(=O)NN(Cc3ccccc3)C2=O)c1", "values": [{"measurement": "inhibition", "setting": "Tubulin (Homo sapiens) [2]", "value": "Active"}, {"measurement": "inhibition", "setting": "Tubulin (Homo sapiens) [3]", "value": "inactive"}, {"measurement": "Activity", "setting": "SH-SY5Y [4]", "value": "Active"}, {"measurement": "EC50", "setting": "SH-SY5Y [5]", "value": 102, "unit": "nM"}, {"measurement": "inhibition", "setting": "Tubulin (Homo sapiens) [6]", "value": "inactive"}, {"measurement": "Activity", "setting": "SH-SY5Y [7]", "value": "Active"}, {"measurement": "Activity", "setting": "SH-SY5Y [8]", "value": "Active"}]}
{"smiles": "O=C1N[C@@H](Cc2ccccc2)C(=O)/C1=C/Nc1ccccc1", "values": [{"measurement": "Activity", "setting": "SH-SY5Y [1]", "value": 70.3, "unit": "%"}]}
{"smiles": "C/C(Nc1ccccc1)=C1/C(=O)NN(Cc2ccccc2)C1=O", "values": [{"measurement": "Activity", "setting": "SH-SY5Y [1]", "value": 36.2, "unit": "%"}]}
{"smiles": "C/C(Nc1ccccc1)=C1/C(=O)N[C@@H](Cc2ccccc2)C1=O", "values": [{"measurement": "Activity", "setting": "MDA-MB-231", "value": "inactive"}, {"measurement": "Activity", "setting": "SH-SY5Y [1]", "value": 34.7, "unit": "%"}, {"measurement": "Activity", "setting": "SH-SY5Y [9]", "value": "inactive"}, {"measurement": "Activity", "setting": "SH-SY5Y [10]", "value": "Active"}, {"measurement": "inhibition", "setting": "Tubulin (Homo sapiens) [3]", "value": "inactive"}, {"measurement": "Activity", "setting": "SH-SY5Y [11]", "value": "Active"}, {"measurement": "Activity", "setting": "HeLa", "value": "Active"}, {"measurement": "EC50", "setting": "SH-SY5Y [5]", "value": 68, "unit": "nM"}, {"measurement": "inhibition", "setting": "Tubulin (Homo sapiens) [12]", "value": "Dose-Dependent Effect"}, {"measurement": "inhibition", "setting": "Tubulin (Homo sapiens) [6]", "value": "inactive"}, {"measurement": "Activity", "setting": "SH-SY5Y [8]", "value": "Active"}, {"measurement": "Activity", "setting": "MCF7", "value": "inactive"}]}
{"smiles": "C/C(Nc1cccc(Oc2ccccc2)c1)=C1/C(=O)NN(Cc2ccccc2)C1=O", "values": [{"measurement": "Activity", "setting": "SH-SY5Y [9]", "value": "Active"}, {"measurement": "EC50", "setting": "SH-SY5Y [5]", "value": 895, "unit": "nM"}, {"measurement": "Activity", "setting": "SH-SY5Y [8]", "value": "Active"}]}
{"smiles": "C#CCCOc1cccc(N/C(C)=C2\\C(=O)NN(Cc3ccccc3)C2=O)c1", "values": [{"measurement": "Activity", "setting": "SH-SY5Y [9]", "value": "Active"}, {"measurement": "EC50", "setting": "SH-SY5Y [5]", "value": 790, "unit": "nM"}]}
{"smiles": "CC(=O)O[C@H]1C(=O)[C@@]2(C)[C@H]([C@H](OC(=O)c3ccccc3)[C@]3(O)C[C@H](OC(=O)[C@H](O)[C@@H](NC(=O)c4ccccc4)c4ccccc4)C(C)=C1C3(C)C)[C@]1(OC(C)=O)CO[C@@H]1C[C@@H]2O", "values": [{"measurement": "inhibition", "setting": "Tubulin (Homo sapiens) [13]", "value": "Active"}]}
{"smiles": "COc1ccc(/C=C\\c2cc(OC)c(OC)c(OC)c2)cc1O", "values": [{"measurement": "Activity", "setting": "MDA-MB-231", "value": "inactive"}, {"measurement": "Activity", "setting": "MCF7", "value": "inactive"}]}
{"smiles": "CN(/C=C1\\C(=O)N[C@@H](Cc2ccccc2)C1=O)c1ccccc1", "values": [{"measurement": "Activity", "setting": "SH-SY5Y [1]", "value": 112.4, "unit": "%"}]}
